Drawing on a melting point compilation (Tetko et al.), this text covers melting point for 122 compounds.

SMILES strings stand for the structures. Where only a bound is given, the exact number is not on record here.

Broadly, the melting point is the temperature of the solid-liquid transition. `CN(CC(=O)Nc1c(Cl)cccc1Cl)C(=O)CCl` yielded a melting point of 188 to 190 °C.
The compound `CC(C)c1ncncc1C(=O)O` showed a melting point of 134 to 136 °C.
As for `CC(C)(C)c1ccc(Oc2ccc(C(=O)O)cn2)cc1`, the figure is 143 to 145 °C; as for `COc1cccc(NCc2nnc3n2CCCCC3)c1`, 176 to 180 °C; as for `COc1cccc(NC(=O)c2ccccc2N(C)C(=O)CCC(=O)O)c1`, 125 to 127 °C.
Compound `CCCNC(=O)CN(C)C(=O)CCl` displayed a melting point of 212 to 217 °C.
In turn, `Clc1nccc2ccn(Cc3ccccc3)c12` displayed a melting point of 75 to 77 °C.
As for `O=C(O)c1cn(CCOc2ccccc2Cl)c2ccccc12`, the melting point is 186 to 188 °C.
As to `Cc1ccn2c(C=O)cnc2c1`, the melting point lay within 80 to 82 °C.
As for `c1ccc2nn(C3CCNC3)cc2c1` (configuration not stated), the melting point was in the range of 79 to 81 °C.
For the compound `COC(=O)c1ccc(CN2C(=O)CSC2=O)cc1`, the melting point lay within 117 to 119 °C.
As for `O=C(O)c1ccc(-c2nnco2)cc1`, the figure is 261 to 263 °C; as for `Cn1cc(C(N)=O)cc1C(=O)O`, 223 to 225 °C.
Take `O=C(NC1CCNCC1)C1CCOCC1`: the melting point lay within 156 to 158 °C.
Compound `COc1ccc(C(=O)CCl)cc1Br` registered a melting point of 85 to 87 °C.
As for `O=C1CCSc2ccccc2N1`, the figure is 208 to 210 °C.
The compound `Cc1ccc(SCCNC(=O)CCl)cc1` registered a melting point of 114 to 116 °C.
Compound `Cc1cccc(N)c1C(=O)N1CCCC1` gave a melting point of 87 to 89 °C.
Take `CC(C)c1noc(-c2ccccc2C(=O)O)n1`: the melting point was in the range of 141 to 143 °C.
`Cc1cccc(F)c1C(=O)O` displayed a melting point of 114 to 116 °C.
As to `CC(=O)N1c2ccccc2C[C@H]1C(=O)O`, the melting point fell in the range of 194 to 196 °C.
With `CN(C(=O)CCl)c1nccs1`, the melting point lay in the range of 123 to 125 °C.
As for `O=C(O)c1c[nH]c(=O)cn1`, the figure is 265 to 267 °C; as for `Cc1cc(S(N)(=O)=O)cc([N+](=O)[O-])c1C`, 180 to 182 °C; as for `Nc1cc(S(=O)(=O)NCCCN2CCOCC2)ccc1Cl`, less than 17 °C.
Consider `CN(CC(=O)O)c1ccc(C#N)cn1`, for which the melting point is 170 to 172 °C.
As to `Nc1ccccc1OCC(F)(F)F`, the melting point fell in the range of 49 to 51 °C.
Take `COc1ccccc1CNC(=O)C(C)Cl` (configuration not stated): the melting point was in the range of 113 to 115 °C.
As for `COc1ccc(Br)cc1NC(=O)C1CCC1`, the figure is 84 to 86 °C; as for `CCOC(=O)c1sc(-c2ccc(OC)c(OC)c2)cc1N`, 120 to 122 °C; as for `CN(C)S(=O)(=O)c1c(Cl)nc2ccccn12`, 109 to 111 °C.
Compound `CN1CCCNc2nc3ccccc3nc21` yielded a melting point of 146 to 148 °C.
`CC1(C)CCc2sc(C(=O)O)cc2C1` yielded a melting point of 138 to 140 °C.
Under `Fc1ccc(-n2ncc3c(Cl)ncnc32)cc1` stands 154 to 156 °C; under `CC(=O)c1ccc(Cl)c(F)c1`, 39 to 41 °C.
Under `O=C(O)c1c[nH]nc1C1CCCCC1` stands 269 to 271 °C; under `O=C(CCl)Nc1cc(-n2nnnc2C2CC2)ccc1F`, 119 to 121 °C.
In turn, `COc1cc(OC)c(NC(=O)c2cc3ccccc3cc2O)cc1Cl` yielded a melting point of 199 to 201 °C.
As for `CCOC(=O)c1nc(-c2ccc(Cl)c(Cl)c2)oc1C`, the figure is 99 to 101 °C; as for `O=c1[nH]c2cnccc2n1Cc1ccccc1`, 213 to 215 °C.
Under `Oc1cccc2[nH]ncc12` stands 164 to 166 °C.
Compound `O=C(O)CCSc1ccccc1Br` came in with a melting point of 104 to 106 °C.
Compound `O=C(Nc1sc2c(c1C(=O)O)CCC2)c1ccco1` returned a melting point of 242 to 244 °C.
As for `FC(F)(F)C1(NCc2ccccc2)CCC2(CC1)OCCO2`, the figure is 83 to 85 °C.
Under `CC(=O)c1cc(C#N)c(S)nc1C` stands 127 to 129 °C; under `c1ccc(CCCc2nnn[nH]2)cc1`, 90 to 92 °C.
As for `COc1cc(C=O)ccc1S`, the figure is 43 to 45 °C.
Take `O=c1cc(CCl)c2cc(O)c(O)cc2o1`: the melting point lay within 178 to 180 °C.
As for `CC(CO)NC(=O)C1=Cc2cc(Br)ccc2OC1` (configuration not stated), the figure is 157 to 159 °C; as for `COc1ccc(O)c(C(C)(C)C)c1`, 61 to 63 °C.
Turning to `CN(C1CCCCC1)S(=O)(=O)c1ccc(S)nc1`, the melting point was in the range of 175 to 177 °C.
As for `Cc1c(C(=O)O)sc2nc(C(F)(F)F)ccc12`, the figure is 265 to 267 °C.
As for `O=C1CCSc2c(F)ccc(F)c21`, the figure is 111 to 113 °C; as for `Cc1coc(-c2cccc(N)c2)n1`, 88 to 90 °C.
As for `Cc1c(N)cccc1NC(=O)c1ccccc1`, the figure is 193 to 195 °C; as for `O=C(O)C1CCN(c2ccc(F)c(F)c2)C1=O` (configuration not stated), 154 to 156 °C.
Consider `O=C(O)c1ccc(Cl)c(S(=O)(=O)N2CCOCC2)c1`, for which the melting point was in the range of 176 to 178 °C.
`Cc1nn(-c2cccc(Cl)c2)c2ncc(Br)cc12`: the melting point is 114 to 116 °C.
On to `CC(Oc1ccc(C(C)(C)C)cc1)C(=O)O` (configuration not stated), for which the melting point is 93 to 95 °C.
The compound `O=C1COc2c(Cl)cccc2N1` yielded a melting point of 201 to 203 °C.
Compound `O=C(O)CCN1C(=O)CCc2cc(F)ccc21` came in with a melting point of 149 to 151 °C.
For `O=C(O)CC1(CC(=O)Nc2nccs2)CCCCC1`, the melting point lay within 175 to 177 °C.
Under `Cc1cc(C)n2cnc(C(N)=O)c2n1` stands 303 to 305 °C; under `COc1ccc2nc(C#N)ccc2c1`, 176 to 178 °C; under `N#Cc1ccnc(-n2ccnc2)c1`, 148 to 150 °C.
As for `Nc1ccn(-c2nccs2)n1`, the melting point is 99 to 101 °C.
Under `NCc1ccc(-c2nc3ccccc3s2)o1` stands 124 to 126 °C.
On to `CC1C=CC2C(=O)N(CC(F)(F)F)C(=O)C2C1C(=O)O` (configuration not stated), for which the melting point lay within 166 to 168 °C.
Under `COC(=O)c1nnc2ccccc2c1Cl` stands 147 to 149 °C; under `O=S(=O)(Cl)c1csc2ccc(F)cc12`, 129 to 131 °C; under `Cc1cc(C)c(C(=O)O)c(N)c1`, 103 to 105 °C.
`Fc1ccccc1-c1c[nH]c(C2CCCN2)n1` (configuration not stated): the melting point fell in the range of 111 to 113 °C.
As for `Cc1nc(N)oc1C`, the figure is 64 to 66 °C.
`CC(=O)c1cccc(S(N)(=O)=O)c1` showed a melting point of 143 to 145 °C.
Under `O=C(O)c1cc2ccc(OC(F)(F)F)cc2[nH]1` stands 160 to 162 °C.
Under `CC(C)(C)OC(=O)N1CC=C(c2ccc(O)cc2)CC1` stands 134 to 136 °C; under `Nc1ccc(O)c(S(N)(=O)=O)c1`, 169 to 171 °C; under `O=C(O)CSc1cccc(C(F)(F)F)c1`, 19 to 21 °C.
On to `COc1cc(OC)cc(C(O)CN)c1` (configuration not stated), for which the melting point fell in the range of 92 to 94 °C.
Under `N#CCCn1cc(C=O)c(-c2ccccc2)n1` stands 74 to 76 °C; under `N#CC1(N)CCSC1` (configuration not stated), 54 to 56 °C.
As for `O=C(O)c1cccnc1OCC(F)(F)F`, the figure is 122 to 124 °C.
On to `NNc1cc(C(F)(F)F)nc(-c2ccccn2)n1`, for which the melting point was in the range of 169 to 171 °C.
As for `O=C(Nc1ccc(O)cc1)c1ccsc1`, the figure is 207 to 209 °C; as for `CNC1CCCCNC1=O` (configuration not stated), 234 to 236 °C.
As for `O=C(O)CNc1ncnc2ccccc12`, the figure is 219 to 221 °C; as for `Cc1ccccc1C(=O)NCCC(=O)O`, 110 to 112 °C; as for `COc1ccc2c(c1)NC(=O)CCC2`, 127 to 129 °C.
On to `COc1cc(F)ccc1[N+](=O)[O-]`, for which the melting point was 49 to 51 °C.
Under `N#Cc1ccccc1NCc1ccco1` stands 60 to 62 °C.
As for `CCOc1ccc(N2C(=O)c3ccc(C(=O)O)cc3C2=O)cc1`, the figure is 265 to 267 °C; as for `O=C(O)Cn1cn[nH]c1=O`, 217 to 219 °C.
Compound `COc1ccc(N)cc1Br` came in with a melting point of 58 to 60 °C.
Under `CC(=O)c1c(C)nn(-c2ccccc2)c1C` stands 60 to 62 °C; under `Cc1nn(Cc2ccc(Cl)cc2)c2sc(C(=O)O)cc12`, 245 to 247 °C; under `O=C(O)CCCc1ccc(O)cc1`, 106 to 108 °C.
Under `O=C(O)CC(O)c1ccc(Cl)cc1` (configuration not stated) stands 197 to 199 °C; under `COCCCn1cnnc1S`, 161 to 163 °C.
As for `CC(C)(C)c1cc(CCC(=O)O)cc(C(C)(C)C)c1O`, the figure is 165 to 167 °C; as for `N#Cc1ccc(C(=O)NCC(=O)O)cc1`, 193 to 195 °C; as for `CC(C)c1noc(-c2cc(Cl)ccc2N)n1`, 93 to 95 °C.
As for `CC(C)Nc1ncccc1C(=O)O`, the melting point was 169 to 171 °C.
In turn, `S=C1NC2CCCCC2N1` (configuration not stated) yielded a melting point of 134 to 136 °C.
As for `Cn1c(Cl)nc(Cl)c1C=O`, the figure is 61 to 63 °C.
Consider `O=CNc1ccc2c(c1)OCO2`, for which the melting point was 96 to 98 °C.
Under `CCOC(=O)Nc1ccc(N)cc1` stands 73 to 75 °C; under `COc1ccc(C(=O)CSc2nc(C)n[nH]2)cc1Br`, 158 to 160 °C.
`Cn1c(=O)[nH]c2ccc(C(=O)O)cc21` displayed a melting point of 366 to 368 °C.
Under `CNc1ccc(Br)cc1[N+](=O)[O-]` stands 101 to 103 °C; under `Cc1nc(Cl)c2c3c(sc2n1)CCCCC3`, 43 to 47 °C.
As for `O=C(O)/C=C/c1ccc(OCc2ccccn2)cc1`, the melting point lay within 210 to 212 °C.
As for `Cc1cc(N)ccc1NC(=O)c1ccco1`, the figure is 173 to 175 °C.
`CC(C)c1cc(C(=O)O)cc(O)n1` returned a melting point of 309 to 311 °C.
On to `NNC(=O)CNc1ccccc1`, for which the melting point was in the range of 126 to 128 °C.
Under `O=Cc1cnn(-c2cccc(Cl)c2)n1` stands 84 to 86 °C; under `O=[N+]([O-])CC(c1ccco1)c1c(-c2ccccc2)[nH]c2ccccc12` (configuration not stated), 127 to 129 °C.
As for `O=C(NC1(c2nn[nH]n2)CCCC1)c1ccccc1`, the melting point was in the range of 228 to 230 °C.
The compound `O=[N+]([O-])c1ccccc1S(=O)(=O)N1CCNCC1` returned a melting point of 147 to 149 °C.
On to `N#CCCSc1ccc(C(F)(F)F)cc1N`, for which the melting point was in the range of 58 to 60 °C.
In the case of `Cc1c(N)cccc1CS(C)=O` (configuration not stated), the melting point fell in the range of 183 to 185 °C.
Consider `Cc1ccccc1NC(=O)CC#N`, for which the melting point is 133 to 135 °C.
`OCc1nc(-c2ccccc2)cs1` showed a melting point of 87 to 89 °C.
